From PubChem BioAssay (NCI)
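Exposure lasted 48 hours, with cells grown in 96-well plates and compounds tested at five concentrations. TGI denotes the concentration required for complete inhibition of growth.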

Experiments:
Experiment in all cases: DTP human tumour cell line panel, 48 h
[1] = test system: 786-0 renal
[2] = test system: A498 renal
[3] = test system: A549 NSCLC
[4] = test system: ACHN renal
[5] = test system: CAKI-1 renal
[6] = test system: CCRF-CEM leukemia
[7] = test system: COLO 205 colon
[8] = test system: DLD-1 colon
[9] = test system: DMS 114 small cell lung
[10] = test system: DMS 273 small cell lung
[11] = test system: EKVX NSCLC
[12] = test system: HCC-2998 colon
[13] = test system: HCT-116 colon
[14] = test system: HCT-15 colon
[15] = test system: HL-60(TB) leukemia
[16] = test system: HOP-18 NSCLC
[17] = test system: HOP-62 NSCLC
[18] = test system: HOP-92 NSCLC
[19] = test system: HT29 colon
[20] = test system: IGROV1 ovarian
[21] = test system: K-562 leukemia
[22] = test system: KM12 colon
[23] = test system: KM20L2 colon
[24] = test system: LOX IMVI melanoma
[25] = test system: LXFL 529 NSCLC
[26] = test system: M14 melanoma
[27] = test system: M19-MEL melanoma
[28] = test system: MALME-3M melanoma
[29] = test system: MOLT-4 leukemia
[30] = test system: NCI-H226 lung
[31] = test system: NCI-H23 lung
[32] = test system: NCI-H460 lung
[33] = test system: NCI-H522 lung
[34] = test system: OVCAR-3 ovarian
[35] = test system: OVCAR-4 ovarian
[36] = test system: OVCAR-5 ovarian
[37] = test system: OVCAR-8 ovarian
[38] = test system: RXF 393 renal
[39] = test system: RXF-631 renal
[40] = test system: SF-268 CNS
[41] = test system: SF-295 CNS
[42] = test system: SF-539 CNS
[43] = test system: SK-MEL-2 melanoma
[44] = test system: SK-MEL-28 melanoma
[45] = test system: SK-MEL-5 melanoma
[46] = test system: SK-OV-3 ovarian
[47] = test system: SN12C renal
[48] = test system: SNB-19 CNS
[49] = test system: SNB-75 CNS
[50] = test system: SNB-78 CNS
[51] = test system: SR leukemia
[52] = test system: SW-620 colon
[53] = test system: TK-10 renal
[54] = test system: U251 CNS
[55] = test system: UACC-257 melanoma
[56] = test system: UACC-62 melanoma
[57] = test system: UO-31 renal

Measured: TGI

CC(C)(C)c1cc2ccc(C(N)=O)cc2c(=O)[nH]1
> 100 µM: all assays above
